Assay results: patent publication US20060247303A1, “7H-dibenzo[b,g][1,5]dioxocin-5-one derivatives and use thereof” (BAYER HEALTHCARE AG, priority 2002, published 2006)

Molecular target: T1, CETP (Homo sapiens, UniProt P11597)
T1 construct: enriched CETP fraction, obtained from human plasma by means of hydrophobic chromatography; from tissue; host or cells: human plasma
T1 sequence (P11597 18-493): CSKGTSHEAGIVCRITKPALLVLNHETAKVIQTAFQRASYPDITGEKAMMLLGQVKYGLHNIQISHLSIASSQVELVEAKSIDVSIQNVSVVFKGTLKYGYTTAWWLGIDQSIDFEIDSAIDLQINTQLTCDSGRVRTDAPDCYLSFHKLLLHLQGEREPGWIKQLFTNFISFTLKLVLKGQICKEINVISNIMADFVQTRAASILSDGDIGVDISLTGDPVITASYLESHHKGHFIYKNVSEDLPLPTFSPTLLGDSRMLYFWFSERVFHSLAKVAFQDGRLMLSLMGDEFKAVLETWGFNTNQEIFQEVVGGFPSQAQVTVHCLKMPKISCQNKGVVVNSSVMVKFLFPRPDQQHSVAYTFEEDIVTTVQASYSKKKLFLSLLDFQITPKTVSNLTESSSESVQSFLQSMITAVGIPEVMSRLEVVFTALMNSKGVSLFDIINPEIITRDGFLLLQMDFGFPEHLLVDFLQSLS
Assay: CETP fluorescence test
Format: biochemical
Conditions: CETP from human plasma, transfer of fluorescent cholesterol ester between liposomes, 37° C., 4 hours; read-out: IC50 [nM] Fluor. test
Experimental: CETP is obtained in partially purified form from human plasma by differential centrifugation and column chromatography and used for the test. To this end, human plasma is adjusted to a density of 1.21 g per ml using NaBr and centrifuged at 4° C. at 50 000 rpm for 18 h. The bottom fraction (d>1.21 g/ml) is applied to a Sephadex® Phenyl-Sepharose 4B (Pharmacia) column, washed with 0.15 M NaCl/0.001 M tris HCl pH 7.4 and then eluted with distilled water. The CETP-active fractions are pooled, dialysed against 50 mM sodium acetate pH 4.5 and applied to a CM-Sepharose® column (Pharmacia). The mixture is then eluted using a linear gradient (0-1 M NaCl). The pooled CETP fractions are dialysed against 10 mM Tris HCl pH 7.4 and then further purified by chromatography on a Mono Q® column (Pharmacia).
Measurement of the CETP-catalysed transfer of a fluorescent cholesterol ester between liposomes—modified according to the procedure of Bisgaier et al., J. Lipid Res. 34, 1625 (1993):
For the production of the donor liposomes, 1 mg of cholesteryl 4,4-difluoro-5,7-dimethyl-4-bora-3a,4a-diaza-s-indacene-3-dodecanoate (cholesteryl BODIPY® FL C12, Molecular Probes) is dissolved in 600 μl of dioxane with 5.35 mg of triolein and 6.67 mg of phosphatidylcholine with gentle warming in an ultrasonic bath and this solution is added very slowly with ultrasonication to 63 ml of 50 mM tris/HCl, 150 mM NaCl, 2 mM EDTA buffer pH 7.3 at RT.
The suspension is then ultrasonicated under an N2 atmosphere for 30 minutes in the Braukson ultrasonic bath at about 50 watts, the temperature being kept at about 20° C.
The acceptor liposomes are obtained analogously from 86 mg of cholesteryl oleate, 20 mg of triolein and 100 mg of phosphatidylcholine dissolved in 1.2 ml of dioxane and 114 ml of above buffer by ultrasonication at 50 watts (20° C.) for 30 minutes.
For testing, a test mix consisting of 1 part of above buffer, 1 part of donor liposomes and 2 parts of acceptor liposomes is used.
80 μl of test mix are treated with 1-3 μg of enriched CETP fraction, obtained from human plasma by means of hydrophobic chromatography, and 2 μl of the substance to be investigated in DMSO and incubated at 37° C. for 4 hours.
The change in the fluorescence at 485/535 nm is a measure of the CE transfer; the inhibition of the transfer in comparison to the control batch without substance is determined.

| Structure (SMILES) | IC50 [nM] |
| --- | --- |
| COc1c([C@@H](O)CC(C)C)ccc2c1C(=O)OCc1c(Cl)c(C)c(Cl)c(OC(=O)N3CC4CCC(C3)O4)c1O2 [Example B-165] | 300 |
| COc1c([C@@H](O)CC(C)C)ccc2c1C(=O)OCc1c(C)c(C)c(C)c(OC(=O)C(C)(C)C)c1O2 [Example A-35] | 200 |
| COc1c([C@@H](O)CC(C)C)ccc2c1C(=O)OCc1cc(C)cc(OS(=O)(=O)C(C)C)c1O2 [Example A-42, 9-[(1S)-1-Hydroxy-3-methylbutyl]-8-methoxy-3-methyl-7-oxo-5H,7H-dibenzo[b,g]-[1,5]-dioxocin-1-yl 2-propanesulphonate] | 700 |
| COc1c([C@@H](O)CC(C)C)ccc2c1C(=O)OCc1c(Cl)c(C)c(Br)c(OC(=O)C3(C)CCCCC3)c1O2 [Example C-67] | 90 |
| COc1c([C@@H](O)CC(C)C)ccc2c1C(=O)OCc1c(C#N)c(C)cc(OCCC(C)C)c1O2 [Example A-78, 9-[(1S)-1-Hydroxy-3-methylbutyl]-1-(isopentyloxy)-8-methoxy-3-methyl-7-oxo-5H,7H-dibenzo[b,g][1,5]dioxocin-4-carbonitrile] | 3000 |
| COc1c([C@@H](O)CC(C)C)ccc2c1C(=O)OC(C)c1cc(C)cc(OC(=O)C3(C)C4CCC3CC4)c1O2 (some centres unmarked) [Example C-120] | 100 |
| COc1c([C@@H](O)CC(C)C)ccc2c1C(=O)OCc1cc(C(F)F)cc(OCCC(C)C)c1O2 [Example B-176, 9-(Difluoromethyl)-3-[(1S)-1-hydroxy-3-methylbutyl]-11-(isopentyloxy)-4-methoxy-5H,7H-dibenzo[b,g][1,5]dioxocin-5-one] | 5000 |
| COc1c(C(O)CC(C)C)ccc2c1C(=O)OCc1cc(C)cc(CCC3CCCC3)c1O2 (centres unmarked) [Example A-70, 11-(2-Cyclopentylethan-1-yl)-3-(1-hydroxy-3-methylbutyl)-4-methoxy-9-methyl-5H,7H-dibenzo[b,g][1,5]dioxocin-5-one] | 2000 |
| CCc1c(C)cc2c(c1OC(=O)[C@@]1(C)C[C@H]3CC[C@@H]1C3)Oc1ccc([C@@H](O)CC(C)C)c(OC)c1C(=O)OC2 [Example C-91] | 40 |
| COc1c([C@@H](O)CC(C)C)ccc2c1C(=O)OCc1c(C)c(C)c(C)c(OC(=O)C3(C)C4CCC3CC4)c1O2 (some centres unmarked) [Example C-82] | 60 |
| COc1c([C@@H](O)CC(C)C)ccc2c1C(=O)OCc1cc(C)c(Cl)c(OC(=O)[C@@]3(C)C[C@H]4CC[C@@H]3C4)c1O2 [Example C-22] | 75 |
| COc1c([C@@H](O)CC(C)C)ccc2c1C(=O)OCc1c(Br)c(C)c(Br)c(OCCCC(F)(F)F)c1O2 [Example B-1, 8,10-Dibromo-3-[(1S)-1-hydroxy-3-methylbutyl]-4-methoxy-9-methyl-11-(4,4,4-trifluorobutoxy)-5H,7H-dibenzo[b,g][1,5]dioxocin-5-one] | 1000 |
| COc1c([C@@H](O)CC(C)C)ccc2c1C(=O)OCc1c(Br)c(C)c(Cl)c(OC(=O)[C@@]3(C)C[C@H]4CC[C@@H]3C4)c1O2 [Example C-21] | 70 |
| COc1c(C(O)CC(C)(C)C)ccc2c1C(=O)OCc1cc(C)cc(OCCC(C)C)c1O2 (centres unmarked) [Example A-55, 3-(1-Hydroxy-3,3-dimethylbutyl)-11-(isopentyloxy)-4-methoxy-9-methyl-5H,7H-dibenzo[b,g][1,5]dioxocin-5-one] | 1500 |
| COc1c(C(O)CC(C)(C)C)ccc2c1C(=O)OCc1c(Cl)c(C)c(C3CC3)c(OC(=O)C3(C)C4CCC3CC4)c1O2 (centres unmarked) [Example C-62] | 60 |
| COc1c([C@@H](O)CC(C)C)ccc2c1C(=O)OCc1cc(C)cc(OC(=O)C3(C)CC3(F)F)c1O2 (some centres unmarked) [Example B-22] | 700 |
| COc1c([C@@H](O)CC(C)C)ccc2c1C(=O)OCc1cc(C)cc(OCC3CC4C=CC3C4)c1O2 (stereo partly drawn) [Example B-5, 3-[(1S)-1-Hydroxy-3-methylbutyl]-4-methoxy-9-methyl-11-(bicyclo[2.2.1]hept-5-en-2-ylmethoxy)-5H,7H-dibenzo[b,g][1,5]dioxocin-5-one] | 1500 |

More lines, now with the values ahead:

| IC50 [nM] | Structure (SMILES) |
| --- | --- |
| 500 | COc1c(C(O)CC(C)C)ccc2c1C(=O)OCc1c(F)c(C)cc(OCCC(C)C)c1O2 (centres unmarked) [Example A-64] |
| 250 | COc1c([C@@H](O)CC(C)C)ccc2c1C(=O)OCc1c(Cl)c(C)c(Br)c(OC(=O)C3CCC3)c1O2 [Example B-50] |
| 50 | CCc1c(C)c(Cl)c2c(c1OC(=O)C1(C)C3CCC1CC3)Oc1ccc([C@@H](O)CC(C)C)c(OC)c1C(=O)OC2 (some centres unmarked) [Example C-65] |
| 1000 | COc1c([C@@H](O)CC(C)C)ccc2c1C(=O)OCc1cc(C)cc(OC(=O)C3(c4cccc(F)c4)CCCCC3)c1O2 [Example B-8] |
| 200 | COc1c([C@@H](O)CC(C)C)ccc2c1C(=O)OCc1c(Cl)c(C)c(Cl)c(OC(=O)C(C)(C)C)c1O2 [Example A-47] |
| 50 | COCc1c(C)c(Cl)c2c(c1OC(=O)C1(C)C3CCC1CC3)Oc1ccc([C@@H](O)CC(C)C)c(OC)c1C(=O)OC2 (some centres unmarked) [Example C-66] |
| 300 | COc1c([C@@H](O)CC(C)C)ccc2c1C(=O)OCc1c(Cl)c(C)cc(OC(=O)C(C)(C)CF)c1O2 [Example B-42] |
| 60 | COc1c([C@@H](O)CC(C)C)ccc2c1C(=O)OCc1c(Cl)c(C)c(Br)c(OC(=O)C3(C)C4CCC3CC4)c1O2 (some centres unmarked) [Example C-37] |
| 5000 | COc1c([C@@H](O)CC(C)C)ccc2c1C(=O)OC(C)c1cc(C)cc(OCCC(C)C)c1O2 (mixture of isomers) [Example A-80, [(1S)-1-Hydroxy-3-methylbutyl]-11-(isopentyloxy)-4-methoxy-7,9-dimethyl-5H,7H-dibenzo[b,g][1,5]dioxocin-5-one] |
| 55 | COc1c(C(O)CC(C)C)ccc2c1C(=O)OCc1c(F)c(C)c(C)c(OC(=O)C3(C)C4CCC3CC4)c1O2 (centres unmarked) [Example C-128] |
| 2000 | COc1c(C(O)CC(C)C)ccc2c1C(=O)OCc1cc(C)cc(C#CCC(C)C)c1O2 (centres unmarked) [Example A-63] |
| 50 | COc1c([C@@H](O)CC(C)C)ccc2c1C(=O)OCc1c(Cl)c(C)c(C)c(OC(=O)[C@@]3(C)C[C@H]4CC[C@@H]3C4)c1O2 [Example C-47] |
